Measured values from PubChem BioAssay (NCI).
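A five-concentration, 48-hour dose response in 96-well plates underlies each endpoint, interpolated linearly between surrounding concentrations. TGI: total growth inhibition.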

How the values were obtained:
Assay in all cases: growth of human tumour cells (NCI), 48 h
HCT-15 colon = tested on: HCT-15 colon
HOP-92 NSCLC = tested on: HOP-92 NSCLC
SK-MEL-28 melanoma = tested on: SK-MEL-28 melanoma
SK-MEL-5 melanoma = tested on: SK-MEL-5 melanoma
UACC-257 melanoma = tested on: UACC-257 melanoma
COLO 205 colon = tested on: COLO 205 colon
DU-145 prostate = tested on: DU-145 prostate
A549 NSCLC = tested on: A549 NSCLC
ACHN renal = tested on: ACHN renal
TK-10 renal = tested on: TK-10 renal
OVCAR-4 ovarian = tested on: OVCAR-4 ovarian
K-562 leukemia = tested on: K-562 leukemia
IGROV1 ovarian = tested on: IGROV1 ovarian
NCI-H226 lung = tested on: NCI-H226 lung
HCT-116 colon = tested on: HCT-116 colon
PC-3 prostate = tested on: PC-3 prostate
SF-268 CNS = tested on: SF-268 CNS
SK-MEL-2 melanoma = tested on: SK-MEL-2 melanoma
OVCAR-5 ovarian = tested on: OVCAR-5 ovarian
NCI/ADR-RES ovarian = tested on: NCI/ADR-RES ovarian
SN12C renal = tested on: SN12C renal
CAKI-1 renal = tested on: CAKI-1 renal
HCC-2998 colon = tested on: HCC-2998 colon
MDA-MB-231 breast = tested on: MDA-MB-231 breast
MCF7 breast = tested on: MCF7 breast
NCI-H23 lung = tested on: NCI-H23 lung
MALME-3M melanoma = tested on: MALME-3M melanoma
KM12 colon = tested on: KM12 colon
SF-295 CNS = tested on: SF-295 CNS
U251 CNS = tested on: U251 CNS
786-0 renal = tested on: 786-0 renal
A498 renal = tested on: A498 renal
NCI-H522 lung = tested on: NCI-H522 lung
RPMI-8226 leukemia = tested on: RPMI-8226 leukemia
SW-620 colon = tested on: SW-620 colon
EKVX NSCLC = tested on: EKVX NSCLC
SNB-19 CNS = tested on: SNB-19 CNS
RXF 393 renal = tested on: RXF 393 renal
SNB-75 CNS = tested on: SNB-75 CNS
MDA-N = tested on: MDA-N
UACC-62 melanoma = tested on: UACC-62 melanoma
NCI-H460 lung = tested on: NCI-H460 lung
UO-31 renal = tested on: UO-31 renal
MDA-MB-435 = tested on: MDA-MB-435
MOLT-4 leukemia = tested on: MOLT-4 leukemia
HT29 colon = tested on: HT29 colon
SK-OV-3 ovarian = tested on: SK-OV-3 ovarian
M14 melanoma = tested on: M14 melanoma
BT-549 breast = tested on: BT-549 breast
T-47D breast = tested on: T-47D breast
HOP-62 NSCLC = tested on: HOP-62 NSCLC
SR leukemia = tested on: SR leukemia
LOX IMVI melanoma = tested on: LOX IMVI melanoma
OVCAR-8 ovarian = tested on: OVCAR-8 ovarian
HS 578T breast = tested on: HS 578T breast
CCRF-CEM leukemia = tested on: CCRF-CEM leukemia
OVCAR-3 ovarian = tested on: OVCAR-3 ovarian
HL-60(TB) leukemia = tested on: HL-60(TB) leukemia
SF-539 CNS = tested on: SF-539 CNS

Measured: TGI

Clc1ccc(OCc2nnc(CCCCCCCCc3nnc(COc4ccc(Cl)cc4Cl)o3)o2)c(Cl)c1
53.4 µM: CAKI-1 renal
not listed: T-47D breast | HOP-62 NSCLC | SR leukemia | LOX IMVI melanoma | OVCAR-8 ovarian | HS 578T breast | CCRF-CEM leukemia | OVCAR-3 ovarian | HL-60(TB) leukemia | SF-539 CNS
> 100 µM: all other assays above

S=C1CC(c2ccc(Cl)cc2)Sc2ccccc2N1 (stereo not given)
68 µM: OVCAR-3 ovarian
94 µM: SNB-19 CNS
56.9 µM: SK-OV-3 ovarian
79.3 µM: SF-268 CNS
48.6 µM: RXF 393 renal
35.1 µM: HOP-62 NSCLC
40 µM: HS 578T breast
> 10 µM: K-562 leukemia | SNB-75 CNS | MOLT-4 leukemia
not listed: HOP-92 NSCLC | SK-MEL-2 melanoma | HCC-2998 colon | A498 renal | SW-620 colon | SF-539 CNS
> 100 µM: all other assays above

O=C(c1cccs1)N(C(=O)N1CCC(c2ccccc2)CC1)c1ccccc1
98.3 µM: HOP-62 NSCLC
76.9 µM: UO-31 renal
52.9 µM: EKVX NSCLC
91.2 µM: HL-60(TB) leukemia
38.8 µM: SK-MEL-5 melanoma
93.5 µM: T-47D breast
70.3 µM: RPMI-8226 leukemia
72.2 µM: COLO 205 colon
50.9 µM: KM12 colon
not listed: HOP-92 NSCLC | A549 NSCLC | OVCAR-4 ovarian | HCC-2998 colon | NCI-H522 lung | SNB-75 CNS | SR leukemia
> 100 µM: all other assays above

COc1ccc([N+](=O)[O-])c2c(NCC(O)CO)ccnc12 (stereo not given)
35.1 µM: HCT-15 colon
82.3 µM: EKVX NSCLC
30.2 µM: NCI-H522 lung
70 µM: OVCAR-3 ovarian
56 µM: BT-549 breast
90.1 µM: SF-539 CNS
76.9 µM: A498 renal
58.9 µM: UACC-62 melanoma
95.9 µM: UACC-257 melanoma
40.4 µM: NCI-H23 lung
45.7 µM: OVCAR-4 ovarian
71.9 µM: SK-MEL-2 melanoma
97.5 µM: IGROV1 ovarian
60.8 µM: SK-MEL-5 melanoma
44.7 µM: MALME-3M melanoma
52 µM: NCI-H460 lung
53.6 µM: COLO 205 colon
not listed: HOP-92 NSCLC | NCI-H226 lung | NCI/ADR-RES ovarian
> 100 µM: all other assays above
